Converted amounts (≈) assume the structure as drawn.
Experiments:
[1] = system: P. falciparum K1 strain (Thailand resistant to chloroquine); assay: semiautomated microdilution assay, [3H]-hypoxanthine incorporation, K1 strain; format: cell-based, Plasmodium falciparum; details: K1 strain, 72 h incubation
Procedure, shortened: (§1)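 Intraerythrocytic stages from unsynchronised stock cultures are exposed to test compounds in a semiautomated microdilution format, and fifty percent inhibitory concentrations are then fitted by logit regression.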

[2] = system: P. falciparum NF54 strain (sensitive to standard antimalarials); assay: semiautomated microdilution assay, [3H]-hypoxanthine incorporation, NF54 strain; format: cell-based, Plasmodium falciparum; details: NF54 strain, 72 h incubation
Procedure, shortened: as §1

[3] = system: ANKA strain of P. berghei; assay: single dose STI in vivo screen in infected mice; design: species or system Plasmodium berghei; details: for Activity (%) po / Activity (%) sc / Activity (%) SSVpo: percent reduction in parasitemia day 3 post-infection, mice; for Activity (%) po / Survival (days) po: single 10 mg/kg po in 3% ethanol and 7% Tween 80; for Activity (%) sc / Survival (days) sc: single 10 mg/kg sc in 3% ethanol and 7% Tween 80; for Activity (%) SSVpo: single po dose in standard suspending vehicle (SSV); for Survival (days) po / Survival (days) sc / Survival (days) SSVpo: untreated control 5.6 ± 0.3; for Survival (days) SSVpo: single po dose in SSV
Procedure, shortened: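 Groups of 3-5 Moro SPF or NMRI mice infected with the ANKA strain of P. berghei received a single dose of trioxolane on day one post-infection. The compound was given in 3% ethanol and 7% Tween 80 or in SSV (0.5% w/v CMC, 0.5% v/v benzyl alcohol, 0.4% v/v Tween 80, 0.9% w/v sodium chloride in water). Antimalarial activity was scored as percent reduction in parasitemia on day three and as survival time versus untreated controls. Survival to day 30 counted as cure.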

[4] = system: Schistosoma mansoni 21-day-old schistosomules; assay: effect on 21-day-old schistosomules in mice; format: in vivo; details: single 200 mg/kg per os, female mice
Method: All groups were killed 4 weeks after treatment and the liver and intestine were removed and separated. The liver and intestine were compressed and alive male and female worms could be seen and counted. The effect of the compounds was evaluated by mean total and female worm burden.

[5] = system: Schistosoma mansoni adult schistosomes (49-day-old); assay: effect on adult schistosomes (49-day-old) in mice; format: in vivo; details: for Tox (mice): infected mice
Method: Mice were infected with 100 Schistosoma mansoni cercariae […]. Each group was treated per os with OZ compounds at single doses of 200, 400, and 600 mg/kg. […] All groups were killed 4 weeks after treatment and the liver and intestine were removed and separated. The liver and intestine were compressed and alive male and female worms could be seen and counted.

Row | Structure (SMILES) | IC50 (ng/ml) K1 [1] | IC50 (ng/ml) NF54 [2] | Activity (%) po [3] [%] | Activity (%) sc [3] [%] | Activity (%) SSVpo [3] [%] | Survival (days) po [3] [days] | Survival (days) sc [3] [days] | Survival (days) SSVpo [3] [days] | % reduction of schistosomule growth at day 21 after per os application of 200 mg/kg, FWR (%) [4] [%] | % reduction of schistosomule growth at day 21 after per os application of 200 mg/kg, TWR (%) [4] [%] | Activity (%) po ([3]; 10 mg/kg) [%] | Activity (%) sc ([3]; 10 mg/kg) [%] | Survival (days) po ([3]; 10 mg/kg) [days] | Survival (days) sc ([3]; 10 mg/kg) [days] | Tox (mice) ([5]; 200 mg/kg per os) | Tox (mice) ([5]; 400 mg/kg per os) | % reduction of adult worms growth at day 49 after per os application of 200 mg/kg, TWR (%) ([5]; single 200 mg/kg per os) | adult worms at day 49, per os 200 mg/kg, DEAD WORM (%) ([5]; single 200 mg/kg per os) | % reduction of adult worms growth at day 49 after per os application of 400 mg/kg, TWR (%) ([5]; single 400 mg/kg per os) | adult worms at day 49, per os 400 mg/kg, DEAD WORM (%) ([5]; single 400 mg/kg per os)
1 | ON=C1CCC2(CC1)OOC1(O2)C2CC3CC(C2)CC1C3 (centres unmarked) [OZ16] | 0.45 ng/mL (≈ 1.53 nM) | 0.67 ng/mL (≈ 2.28 nM) | 79 | 99.2 | 83 | 6.7 | 7.3 | 6.7 | 77 | 78 |  |  |  |  |  |  |  |  |  | 
2 | c1ccc(CON=C2CCC3(CC2)OOC2(O3)C3CC4CC(C3)CC2C4)cc1 (centres unmarked) [OZ19] | 1.3 ng/mL (≈ 3.39 nM) | 2.7 ng/mL (≈ 7.04 nM) | 98.3 | 99.98 | 56 | 7.5 | 13.4 | 6.0 | 74 | 77 |  |  |  |  |  |  |  |  |  | 
3 | C1CC2(CCO1)OOC1(O2)C2CC3CC(C2)CC1C3 (centres unmarked) [OZ22] | 0.32 ng/mL (≈ 1.2 nM) | 0.56 ng/mL (≈ 2.1 nM) | 35 | 99.6 |  | 6.0 | 7.7 |  | 76 | 75 |  |  |  |  |  |  |  |  |  | 
4 | CC1(C)CC(C)(C)CC2(C1)OOC1(O2)C2CC3CC(C2)CC1C3 (centres unmarked) [OZ26] | 3.1 ng/mL (≈ 9.67 nM) | 5.0 ng/mL (≈ 15.6 nM) | 88 | 99.9 |  | 7.0 | 9.7 |  | 40 | 37 |  |  |  |  |  |  |  |  |  | 
5 | CC(C)(C)ON=C1CCC2(CC1)OOC1(O2)C2CC3CC(C2)CC1C3 (centres unmarked) [OZ28] | 2.1 ng/mL (≈ 6.01 nM) | 2.5 ng/mL (≈ 7.15 nM) | 93 | 99.97 |  | 7.3 | 12.3 |  | 87 | 81 |  |  |  |  |  |  |  |  |  | 
6 | O=C(NN=C1CCC2(CC1)OOC1(O2)C2CC3CC(C2)CC1C3)Nc1ccccc1 (centres unmarked) [OZ30] | 0.65 ng/mL (≈ 1.58 nM) | 1.3 ng/mL (≈ 3.16 nM) | 0 | 86 |  | 5.3 | 9.0 |  | 12 | 16 |  |  |  |  |  |  |  |  |  | 
7 | CC1(C)CCC2(CC1)OOC1(O2)C2CC3CC(C2)CC1C3 (centres unmarked) [OZ33] | 2.3 ng/mL (≈ 7.87 nM) | 3.5 ng/mL (≈ 12 nM) | 80 | 99.97 |  | 6.7 | 11.7 |  | 14 | 28 |  |  |  |  |  |  |  |  |  | 
8 | CC(C)(C)OC(=O)N1CCC2(CC1)OOC1(O2)C2CC3CC(C2)CC1C3 (centres unmarked) [OZ35] | 1.7 ng/mL (≈ 4.65 nM) | 2.1 ng/mL (≈ 5.75 nM) | 74 | 99.98 |  | 6.3 | 9.3 |  | 63 | 73 |  |  |  |  |  |  |  |  |  | 
9 | CON=C1CC2CC3(CC2C1)OOC1(O3)C2CC3CC(C2)CC1C3 (centres unmarked) [OZ37] |  |  | 83 | 99.98 |  | 6.7 | 13 |  | 53 | 63 |  |  |  |  |  |  |  |  |  | 
10 | CS(=O)(=O)N1CCC2(CC1)OOC1(O2)C2CC3CC(C2)CC1C3 (centres unmarked) [OZ56] | 0.59 ng/mL (≈ 1.72 nM) | 0.64 ng/mL (≈ 1.86 nM) | 93 | 99.97 | 63 | 6.7 | 10.3 | 5.7 | 66 | 69 |  |  |  |  |  |  |  |  |  | 
11 | CC(C)(C)CC(=O)N1CCC2(CC1)OOC1(O2)C2CC3CC(C2)CC1C3 (centres unmarked) [OZ111] | 0.92 ng/mL (≈ 2.53 nM) |  | 98 | 99.94 | 79 | 7.7 | 8.3 | 6.3 | 68 | 71 |  |  |  |  |  |  |  |  |  | 
12 | c1cn(C[C@H]2CC[C@]3(CC2)OOC2(O3)C3CC4CC(C3)CC2C4)cn1 (some centres unmarked) [OZ145] | 0.50 ng/mL (≈ 1.45 nM) | 0.76 ng/mL (≈ 2.21 nM) |  |  | 99.21 |  |  | 10.7 | 83 | 80 | 99.82 | 99.87 | 8.3 | 10.7 |  |  |  |  |  | 
13 | O=[N+]([O-])c1ccc(N2CCC3(CC2)OOC2(O3)C3CC4CC(C3)CC2C4)cc1 (centres unmarked) [OZ151] | 3.8 ng/mL (≈ 9.83 nM) | 4.0 ng/mL (≈ 10.4 nM) | 71 | 99.63 | 71 | 7.3 | 11.0 | 7.3 | 19 | 19 |  |  |  |  |  |  |  |  |  | 
14 | OC12CC3CC(C1)C1(OOC4(CCC5(CC4)OCCO5)O1)C(C3)C2 (centres unmarked) [OZ152] | 3.2 ng/mL (≈ 9.46 nM) | 7.2 ng/mL (≈ 21.3 nM) |  |  | 12 | 6.3 |  | 6.7 | 11 | 19 | 0 | 22 |  | 6.7 |  |  |  |  |  | 
15 | CN1CCN(C(=O)N2CCC3(CC2)OOC2(O3)C3CC4CC(C3)CC2C4)CC1 (centres unmarked) [OZ157] | 0.20 ng/mL (≈ 0.511 nM) | 0.22 ng/mL (≈ 0.562 nM) | 90 | 97 | 80 | 7.3 | 8.3 | 8.3 | 68 | 65 |  |  |  |  |  |  |  |  |  | 
16 | O=C(C[C@H]1CC[C@]2(CC1)OOC1(O2)C2CC3CC(C2)CC1C3)N1CCOCC1 (some centres unmarked) [OZ189] | 1.7 ng/mL (≈ 4.34 nM) | 3.0 ng/mL (≈ 7.66 nM) | 95 | 98 | 99.79 | 9.3 | 10.7 | 9.0 |  |  |  |  |  |  | *Tox: 2/3 | Tox: 3/3 ^ | 0 | 17 |  | 
17 | C1=C(c2ccccc2)CCC2(C1)OOC1(O2)C2CC3CC(C2)CC1C3 (centres unmarked) [OZ226] | 4.0/4.0 ng/ml | 4.0/4.0 ng/ml | 0 | 99.92 | 0 | 5.0 | 11.0 | 5.3 |  |  |  |  |  |  |  |  |  |  | 52 | 0

Source: patent US6906205B2, “Spiro and dispiro 1,2,4-trioxolane antimalarials” (Medicines for Malaria Venture MMV, priority 2002, dated 2005)
